Article PMC5369982, “Near infrared fluorescent imaging of choline kinase alpha expression and inhibition in breast tumors” (Oncotarget, 2017)
Read-outs that look alike come from different tables or passages of the source.

What was measured:
[1] = test system: 4175-Luc+ tumors; experiment: NIRF optical imaging, JAS239 biodistribution in mice bearing 4175-Luc+ tumors; format: in vivo, mouse
Description: Bioluminescence and NIRF (Ex. 745 nm; Em. 800 nm) images were acquired in an IVIS Spectrum (PerkinElmer). NIRF is measured in Average Radiant Efficiency, photons per second (p/sec) corrected for the area of the region of interest (ROI) and the efficiency of the lamp (μ Watt *cm^−2 / steradian^-1). For bioluminescence imaging, mice were injected i.p. with 150 mg/kg of firefly D-luciferin (Biosynth). Bioluminescent Radiance (p/sec/cm^2/sr) was monitored by time-course imaging until the luminescence intensity plateaued. For NIRF imaging, mice were injected i.v. with 100 μL vehicle or JAS239 (20 nmol). Two vehicle formulations were tested in mice bearing 4175-Luc+ tumors: the first was 0.1% Tween-80 / 50 mM Tris-HCl, and the second was 1% ethanol diluted in 0.9% saline. ROIs with a 20% threshold were created from the bioluminescence image using the LivingImage software (PerkinElmer) program, and this region was used to analyze intratumoral JAS239 accumulation in the NIRF images. Resected organs were placed in 24-well plates and NIRF was measured to quantify JAS239 biodistribution. For diagnostic studies, mice bearing both MCF7-EV and MCF7-CK+ tumors of approximately 200 μL were injected with 20 nmol JAS239 in Tween-80/Tris (8 mice) or in ethanol/saline (7 mice). The cohorts were euthanized after 90 min / 24h respectively, and tumor-bearing flanks were surgically exposed. NIRF from the tumor-bearing fat pads was subtracted from background muscle signal and the Average Radiant Efficiency measured.

[2] = test system: MCF7-EV and MCF7-CK+ tumors; experiment: NIRF optical imaging of JAS239 in mice bearing MCF7-EV and MCF7-CK+ tumors; format: in vivo, mouse
Description: All animal studies were approved by the Institutional Animal Care and Use Committee of the University of Pennsylvania. Six week old female athymic nude Foxn1^nu/nu mice (National Cancer Institute) were housed in a temperature-controlled environment with 12 h light/dark cycle. Anesthesia was induced using 2% isoflurane in oxygen for all experiments. For MCF7 tumors, mice were supplemented with 60-day release 0.36 mg 17β-estradiol tablets (Innovative Research of America) using a trochar in the nape of the neck. After 1 week, 4 × 10^6 cells in Matrigel (BD Biosciences) were inoculated into the left (CK+) and contralateral (EV) mammary fat pads. Subcutaneous xenografts, including those analyzed in MRI/MRS studies, were grown on the shoulder to allow for cloaking of the kidneys during optical imaging studies. Tumor growth was determined via caliper measurement of three orthogonal dimensions and volume calculated as length * width * height * π/6.
Bioluminescence and NIRF (Ex. 745 nm; Em. 800 nm) images were acquired in an IVIS Spectrum (PerkinElmer). NIRF is measured in Average Radiant Efficiency, photons per second (p/sec) corrected for the area of the region of interest (ROI) and the efficiency of the lamp (μ Watt *cm^−2 / steradian^-1). […] Bioluminescent Radiance (p/sec/cm^2/sr) was monitored by time-course imaging until the luminescence intensity plateaued. […]

[3] = molecular target: ChoKα (Homo sapiens, UniProt P35790); experiment: Confocal microscopy colocalization of JAS239 with anti-ChoKα antibody in fixed MDA-MB-231 cells; format: cell-based; set-up: endogenous in cells; host or cells: MDA-MB-231; settings: cells pre-treated with ChoKα antibody
Description: MDA-MB-231 cells plated on sterile glass coverslips were fixed in 4% paraformaldehyde, permeabilized in 0.2% Triton X-100, and blocked in 1% BSA. Staining with 0 or 200 μM JAS239 was performed 30 min prior or 1 h after application of rabbit anti-human ChoKα antibody (ab38290; Abcam, 1:1000 dilution). Coverslips were then stained with goat anti-rabbit antibody conjugated to Texas Red (Vector Laboratories; TI-1000, 1:500), dehydrated, and mounted with VectaShield (Vector Laboratories). Confocal micrographs were acquired on a Zeiss LSM 510META NLC using excitation (Ex.) 543 nm and emission (Em.) 565–615 nm for Texas Red and Ex. 633 nm and Em. > 650 nm for JAS239. The Coloc 2 FIJI software plug-in was used to assess colocalization of the anti-ChoKα antibody with JAS239 by calculating Pearson's Correlation Coefficients and Manders’ Colocalization Coefficients for at least 3 separate ROIs. […]
strongly correlated with ChoKα, unless fixed cells are pre-incubated with ChoKα antibody (Ab). (B) Manders’ Colocalization Coefficients calculated for the Texas-Red channel confirm that the majority of ChoKα is bound by JAS239 when JAS239 is present. (C) Manders’ Colocalization Coefficients calculated for the JAS239 channel indicate that the majority of JAS239 that is present intracellularly is co-distributed with ChoKα. Values represent ± SEM for 3 separate fields of view. […]

[4] = test system: MDA-MB-231 tumor xenografts; set-up: method as in PMID 16397258; settings: 4 mg/kg; cited from earlier work
[5] = set-up: method as in PMID 10397253; settings: cited from earlier work

Chain of ChoKα (P35790 whole entry): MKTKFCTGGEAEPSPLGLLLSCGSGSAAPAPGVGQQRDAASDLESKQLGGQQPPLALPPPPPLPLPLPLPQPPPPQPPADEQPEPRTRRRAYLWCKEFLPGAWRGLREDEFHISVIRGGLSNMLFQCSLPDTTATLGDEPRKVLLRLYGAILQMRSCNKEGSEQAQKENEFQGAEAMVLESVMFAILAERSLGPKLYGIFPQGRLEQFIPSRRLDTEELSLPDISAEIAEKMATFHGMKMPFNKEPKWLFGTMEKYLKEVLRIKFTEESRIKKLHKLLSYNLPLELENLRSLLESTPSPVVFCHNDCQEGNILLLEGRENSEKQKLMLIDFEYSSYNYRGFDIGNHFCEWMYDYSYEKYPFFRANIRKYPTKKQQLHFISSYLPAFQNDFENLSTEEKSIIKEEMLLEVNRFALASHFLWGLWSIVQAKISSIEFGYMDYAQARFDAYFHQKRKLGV

| Molecule | Initial hepatic clearance time ([1]; 20 nmol i.v. in Tween-80/Tris buffer) | Tumor NIRF emission at 800 nm vs. control ([1]; 20 nmol i.v. in Tween-80/Tris buffer, 90 min) | Time of maximum NIRF contrast between tumor and background ([1]; 20 nmol i.v. in Tween-80/Tris buffer, post-injection) [min] | Time of highest tumor signal to noise ([1]; 20 nmol i.v. in ethanol/saline vehicle, subcutaneous tumors) [h] | Tumor-to-muscle ratio ex vivo ([1]; ethanol/saline vehicle, 24 h post-injection) | Hepatic signal compared to the Tween-80/Tris vehicle ([1]; ethanol/saline vehicle, 24 h post-injection, resected organs) | Tumor/normal tissue fluorescence ratio [2] | JAS239 retention after ChoKα antibody pre-treatment [3] | PC levels in tumor xenografts [4] | Tolerability ([5]; 10 mg/kg) | Tolerability ([5]; dosed daily for 5 days at 5 mg/kg) |
| --- | --- | --- | --- | --- | --- | --- | --- | --- | --- | --- | --- |
| CC1(C)C(=C/C=C/C=C/C=C/C2=[N+](CCO)c3ccccc3C2(C)C)N(CCO)c2ccccc21 [JAS239] | approximately 75 min | an order of magnitude stronger | 90 | 24 | nearly two-fold | dropped nearly one order of magnitude | 2.8 ± 0.2 | marked reduction in JAS239 retention |  |  |  |
| MN58b [reference compound] |  |  |  |  |  |  |  |  | lower PC levels | lethal | tolerable |
